# Measurements: patent US11612595B2, “Compositions and methods for treating rheumatoid arthritis” (Generos Biopharma Ltd., priority 2017, dated 2023)
# Test system: collagen-induced arthritis (CIA) model mice
# Experiment: collagen-induced arthritis (CIA) model mice, clinical scores
# Type: in vivo, DBA/1J mice
# Parameters: key to Pairwise analysis of the difference between groups (clinical scores), vs Model / Pairwise analysis of the difference between groups (clinical scores), S5i 5 mpk vs S5i 10 mpk: p values from pairwise comparisons
# Source text: FIGS. 8A and 8B show graphs depicting clinical score changes in four groups of CIA mouse models under different treatment schemes. In FIG. 8A, different chemicals (DMSO as control for Model group, blank group is left untreated) were daily administered intraperitoneally at the indicated doses from the first injection of the collagen agent. In FIG. 8B, different chemicals were daily administered intraperitoneally from the second injection of collagen agent at the indicated doses. Clinical scores were given double-blindly according to the scoring scheme every 2 days.
# FIGS. 9A and 9B show graphs of clinical scores at day 44 for each group, the overall difference analyzed by ANOVA is significant p<0.0001, while the p value between Model and each individual group is labeled above the bar * p<0.05, ** p<0.01.
# Eight of nine groups (10 mice in each group) of male DBA/1J mice (age 9-10 weeks. H-2q haplotype) were subject to CIA model induction and then to different treatment schemes. The group of mice without CIA model induction was used as a control (Blank). Specifically, Bovine type II collagen (Chondrex) was mixed with Freund's complete adjuvant (CFA) (Sigma) and injected s.c. to flank near tail of the mice twice (the second injection was made 21 days after the first injection) to create CIA model mice. The eight groups of CIA model mice were separated into four prophylactic groups and four therapeutic groups, with each group subjected to different treatments.
# In the four prophylactic groups, daily treatments started from the date when the first CIA induction injection was made. The first of the four prophylactic groups of CIA model mice were treated with 30% PEG300 (containing 4% DMSO-all 30% PEG300 in the application contains 4% DMSO) solution via intraperitoneal injection as controls (Model). The second of the four prophylactic groups of CIA model mice were treated with nicotinohydrazide (Calbiochem) 10 mg/kg in 30% PEG300 solution via intraperitoneal injection (573108 10 mg/kg). The third of the four prophylactic groups of CIA model mice were treated with nicotinohydrazide (Calbiochem) 5 mg/kg in 30% PEG300 solution via intraperitoneal injection (573108 5 mg/kg). The last of the four prophylactic groups of CIA model mice were treated with Tofacitinib (Selleckchem) 5 mg/kg in 30% PEG300 solution via intraperitoneal injection (Tofacitinib 5 mg/kg).
# In the four therapeutic groups, daily treatments started from the date when the second CIA induction injection was made. The first of the four therapeutic groups of CIA model mice were treated with 30% PEG300 solution via intraperitoneal injection as controls (Model). The second of the four therapeutic groups of CIA model mice were treated with nicotinohydrazide (Calbiochem) 10 mg/kg in 30% PEG300 solution via intraperitoncal injection (573108 10 mg/kg). The third of the four therapeutic groups of CIA model mice were treated with nicotinohydrazide (Calbiochem) 5 mg/kg in 30% PEG300 solution via intraperitoneal injection (573108 5 mg/kg). The last of the four therapeutic groups of CIA model mice were treated with Tofacitinib (Selleckchem) 5 mg/kg in 30% PEG300 solution via intraperitoncal injection (Tofacitinib 5 mg/kg).
# The inventors collected data of the weight, and clinical scores of the mice every 2-3 days and performed statistic analysis. The method used in the statistic analysis was Student's t test, unpaired, two-tailed analysis.
# The clinical scores were derived according to the scheme in Table 2.
smiles,measurement,setting,value
"O=C(N/N=C/c1coc2ccccc2c1=O)c1cccnc1 [nicotinohydrazide, N′-((4-Oxo-4H-chromen-3-yl)methylene)nicotinohydrazide]",clinical scores compared to Model,"prophylactic groups, 5 mg/kg i.p. daily",reduced clinical scores
same,clinical scores compared to Model,"prophylactic groups, 10 mg/kg i.p. daily",reduced clinical scores
same,"Pairwise analysis of the difference between groups (clinical scores), vs Model","prophylactic groups, 5 mpk, Day 28",0.1019
same,"Pairwise analysis of the difference between groups (clinical scores), vs Model","prophylactic groups, 5 mpk, Day 30",0.0410
same,"Pairwise analysis of the difference between groups (clinical scores), vs Model","prophylactic groups, 5 mpk, Day 32",0.0740
same,"Pairwise analysis of the difference between groups (clinical scores), vs Model","prophylactic groups, 5 mpk, Day 35",0.0615
same,"Pairwise analysis of the difference between groups (clinical scores), vs Model","prophylactic groups, 5 mpk, Day 37",0.1101
same,"Pairwise analysis of the difference between groups (clinical scores), vs Model","prophylactic groups, 5 mpk, Day 39",0.0010
same,"Pairwise analysis of the difference between groups (clinical scores), vs Model","prophylactic groups, 5 mpk, Day 42",0.0185
same,"Pairwise analysis of the difference between groups (clinical scores), vs Model","prophylactic groups, 5 mpk, Day 44",0.2729
same,"Pairwise analysis of the difference between groups (clinical scores), vs Model","prophylactic groups, 10 mpk, Day 28",0.1491
same,"Pairwise analysis of the difference between groups (clinical scores), vs Model","prophylactic groups, 10 mpk, Day 30",0.1452
same,"Pairwise analysis of the difference between groups (clinical scores), vs Model","prophylactic groups, 10 mpk, Day 32",0.1256
same,"Pairwise analysis of the difference between groups (clinical scores), vs Model","prophylactic groups, 10 mpk, Day 35",0.0354
same,"Pairwise analysis of the difference between groups (clinical scores), vs Model","prophylactic groups, 10 mpk, Day 37",0.0614
same,"Pairwise analysis of the difference between groups (clinical scores), vs Model","prophylactic groups, 10 mpk, Day 39",0.0008
same,"Pairwise analysis of the difference between groups (clinical scores), vs Model","prophylactic groups, 10 mpk, Day 42",0.0033
same,"Pairwise analysis of the difference between groups (clinical scores), vs Model","prophylactic groups, 10 mpk, Day 44",0.0128
same,"Pairwise analysis of the difference between groups (clinical scores), S5i 5 mpk vs S5i 10 mpk","prophylactic groups, Day 28",0.7387
same,"Pairwise analysis of the difference between groups (clinical scores), S5i 5 mpk vs S5i 10 mpk","prophylactic groups, Day 30",0.5943
same,"Pairwise analysis of the difference between groups (clinical scores), S5i 5 mpk vs S5i 10 mpk","prophylactic groups, Day 32",0.8722
same,"Pairwise analysis of the difference between groups (clinical scores), S5i 5 mpk vs S5i 10 mpk","prophylactic groups, Day 35",0.7717
same,"Pairwise analysis of the difference between groups (clinical scores), S5i 5 mpk vs S5i 10 mpk","prophylactic groups, Day 37",0.8686
same,"Pairwise analysis of the difference between groups (clinical scores), S5i 5 mpk vs S5i 10 mpk","prophylactic groups, Day 39",0.9741
same,"Pairwise analysis of the difference between groups (clinical scores), S5i 5 mpk vs S5i 10 mpk","prophylactic groups, Day 42",0.1588
same,"Pairwise analysis of the difference between groups (clinical scores), S5i 5 mpk vs S5i 10 mpk","prophylactic groups, Day 44",0.0717
same,clinical scores compared to Model,"therapeutic groups, 5 mg/kg i.p. daily",reduced clinical scores
same,clinical scores compared to Model,"therapeutic groups, 10 mg/kg i.p. daily",reduced clinical scores
same,"Pairwise analysis of the difference between groups (clinical scores), vs Model","therapeutic groups, 5 mpk, Day 28",0.0117
same,"Pairwise analysis of the difference between groups (clinical scores), vs Model","therapeutic groups, 5 mpk, Day 30",0.0295
same,"Pairwise analysis of the difference between groups (clinical scores), vs Model","therapeutic groups, 5 mpk, Day 32",0.0032
same,"Pairwise analysis of the difference between groups (clinical scores), vs Model","therapeutic groups, 5 mpk, Day 35",0.0025
same,"Pairwise analysis of the difference between groups (clinical scores), vs Model","therapeutic groups, 5 mpk, Day 37",0.0024
same,"Pairwise analysis of the difference between groups (clinical scores), vs Model","therapeutic groups, 5 mpk, Day 39",0.0019
same,"Pairwise analysis of the difference between groups (clinical scores), vs Model","therapeutic groups, 5 mpk, Day 42",0.0044
same,"Pairwise analysis of the difference between groups (clinical scores), vs Model","therapeutic groups, 5 mpk, Day 44",0.0012
same,"Pairwise analysis of the difference between groups (clinical scores), vs Model","therapeutic groups, 10 mpk, Day 28",0.0399
same,"Pairwise analysis of the difference between groups (clinical scores), vs Model","therapeutic groups, 10 mpk, Day 30",0.0190
same,"Pairwise analysis of the difference between groups (clinical scores), vs Model","therapeutic groups, 10 mpk, Day 32",0.0080
same,"Pairwise analysis of the difference between groups (clinical scores), vs Model","therapeutic groups, 10 mpk, Day 35",0.1008
same,"Pairwise analysis of the difference between groups (clinical scores), vs Model","therapeutic groups, 10 mpk, Day 37",0.1336
same,"Pairwise analysis of the difference between groups (clinical scores), vs Model","therapeutic groups, 10 mpk, Day 39",0.1189
same,"Pairwise analysis of the difference between groups (clinical scores), vs Model","therapeutic groups, 10 mpk, Day 42",0.0820
same,"Pairwise analysis of the difference between groups (clinical scores), vs Model","therapeutic groups, 10 mpk, Day 44",0.0397
same,"Pairwise analysis of the difference between groups (clinical scores), S5i 5 mpk vs S5i 10 mpk","therapeutic groups, Day 28",0.4163
same,"Pairwise analysis of the difference between groups (clinical scores), S5i 5 mpk vs S5i 10 mpk","therapeutic groups, Day 30",0.8721
same,"Pairwise analysis of the difference between groups (clinical scores), S5i 5 mpk vs S5i 10 mpk","therapeutic groups, Day 32",0.4838
same,"Pairwise analysis of the difference between groups (clinical scores), S5i 5 mpk vs S5i 10 mpk","therapeutic groups, Day 35",0.0249
same,"Pairwise analysis of the difference between groups (clinical scores), S5i 5 mpk vs S5i 10 mpk","therapeutic groups, Day 37",0.0183
same,"Pairwise analysis of the difference between groups (clinical scores), S5i 5 mpk vs S5i 10 mpk","therapeutic groups, Day 39",0.0183
same,"Pairwise analysis of the difference between groups (clinical scores), S5i 5 mpk vs S5i 10 mpk","therapeutic groups, Day 42",0.0777
same,"Pairwise analysis of the difference between groups (clinical scores), S5i 5 mpk vs S5i 10 mpk","therapeutic groups, Day 44",0.0842
